Test results published in US5656726A, “Peptide inhibitors of urokinase receptor activity” (Chiron Corporation, priority 1995, dated 1997).
Like-named read-outs stand apart in the source and are kept apart here. Peptide text beside a SMILES is read from it.

Target: T1, recombinant human urokinase receptor (truncated, soluble; suPAR) (Homo sapiens, UniProt Q03405)
T1 construct: expressed as a truncated, soluble molecule as described previously for mouse L-cells (Masucci et al., J Biol Chem (1991) 266:8655); made in house
T1 sequence (Q03405 23-299 limits assumed): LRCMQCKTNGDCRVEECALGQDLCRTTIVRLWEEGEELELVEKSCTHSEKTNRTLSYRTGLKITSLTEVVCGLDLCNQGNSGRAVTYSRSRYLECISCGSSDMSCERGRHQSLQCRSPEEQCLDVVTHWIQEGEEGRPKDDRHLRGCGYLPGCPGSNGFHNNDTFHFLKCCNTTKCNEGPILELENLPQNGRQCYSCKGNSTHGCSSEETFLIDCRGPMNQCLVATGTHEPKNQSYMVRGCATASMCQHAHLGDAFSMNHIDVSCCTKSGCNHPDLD
Experiment: 125I-ATF competition binding on immobilized soluble recombinant human urokinase receptor
Details: synthesized peptide, read-out: Affinity

[1] = corrected to 100 pM ATF, 0.3 μg/mL suPAR conditions, corrections about 3 × from previous assay conditions
[2] = assay performed at 100 pM ATF, 0.3 μg/mL suPAR in 200 μL (starred values)

| Kd [1] [µM] | Kd [2] [µM] | Structure (SMILES) |
| --- | --- | --- |
| > 50 |  | CC(C)C[C@H](NC(=O)[C@H](CCC(=O)O)NC(=O)[C@H](C)N)C(=O)N1CCC[C@H]1C(=O)N[C@@H](CCCNC(=N)N)C(=O)N[C@H](C(=O)N[C@@H](CC(N)=O)C(=O)N1CCC[C@H]1C(=O)N[C@H](C(=O)N[C@H](C(=O)N[C@@H](C)C(=O)N[C@H](C(=O)N[C@@H](CCCCN)C(=O)N[C@@H](CC(N)=O)C(=O)N1CCC[C@H]1C(=O)N[C@@H](CO)C(=O)N[C@@H](Cc1ccccc1)C(N)=O)C(C)C)[C@@H](C)O)C(C)C)[C@@H](C)O (H-AELPRTNPVTAVKNPSF-NH2) |
| 7 |  | CC[C@H](C)[C@H](NC(=O)[C@H](CO)NC(=O)[C@@H](NC(=O)[C@H](CC(C)C)NC(=O)[C@@H](NC(=O)[C@@H]1CCCN1C(=O)[C@H](CC(C)C)NC(=O)[C@H](CO)NC(=O)[C@H](CCC(=O)O)NC(=O)[C@H](C)N)[C@@H](C)O)[C@@H](C)O)C(=O)N[C@@H](CC(C)C)C(=O)N[C@@H](Cc1c[nH]c2ccccc12)C(=O)NCC(=O)N[C@@H](CCCCN)C(=O)N[C@@H](CCC(=O)O)C(=O)N[C@@H](CO)C(=O)N[C@H](C(N)=O)C(C)C (H-AESLPTLTSILWGKESV-NH2) |
| 5 |  | CC[C@H](C)[C@H](NC(=O)[C@@H](NC(=O)[C@H](CCC(N)=O)NC(=O)[C@@H]1CCCN1C(=O)[C@H](CCC(=O)O)NC(=O)[C@@H]1CCCN1C(=O)[C@H](CC(C)C)NC(=O)[C@H](Cc1c[nH]cn1)NC(=O)[C@H](CC(C)C)NC(=O)[C@H](CC(N)=O)NC(=O)[C@H](Cc1ccc(O)cc1)NC(=O)[C@H](Cc1ccccc1)NC(=O)[C@H](CO)NC(=O)[C@H](Cc1c[nH]c2ccccc12)NC(=O)[C@H](CCC(=O)O)NC(=O)[C@H](C)N)[C@@H](C)O)C(=O)N[C@@H](Cc1ccccc1)C(N)=O (H-AEWSFYNLHLPEPQTIF-NH2) |
| 7 |  | CC(C)C[C@H](NC(=O)[C@@H](NC(=O)CNC(=O)[C@@H](NC(=O)[C@H](CCC(N)=O)NC(=O)[C@H](CO)NC(=O)[C@H](CCC(=O)O)NC(=O)[C@H](C)N)[C@@H](C)O)[C@@H](C)O)C(=O)N[C@@H](CC(N)=O)C(=O)N[C@H](C(=O)N[C@@H](CC(C)C)C(=O)N[C@@H](Cc1ccccc1)C(=O)N[C@@H](Cc1c[nH]c2ccccc12)C(=O)N[C@@H](CC(N)=O)C(=O)N[C@H](C(=O)N[C@@H](CC(C)C)C(=O)N[C@@H](CCCNC(=N)N)C(N)=O)[C@@H](C)O)[C@@H](C)O (H-AESQTGTLNTLFWNTLR-NH2) |
|  | 7 | CC[C@H](C)[C@H](NC(=O)[C@H](Cc1c[nH]cn1)NC(=O)[C@H](CCCCN)NC(=O)[C@H](CC(=O)O)NC(=O)[C@H](Cc1c[nH]cn1)NC(=O)[C@H](Cc1c[nH]c2ccccc12)NC(=O)[C@H](CC(C)C)NC(=O)[C@H](CC(=O)O)NC(=O)[C@H](CCSC)NC(=O)[C@H](Cc1ccccc1)NC(=O)[C@H](CC(C)C)NC(=O)[C@@H](NC(=O)[C@H](CCC(=O)O)NC(=O)[C@H](C)N)[C@@H](C)O)C(=O)N[C@@H](CC(C)C)C(=O)N[C@@H](CC(C)C)C(=O)N[C@H](C(N)=O)[C@@H](C)O (H-AETLFMDLWHDKHILLT-NH2) |
|  | 0.35 | CC(C)C[C@H](NC(=O)[C@H](CO)NC(=O)[C@H](CO)NC(=O)[C@H](Cc1ccc(O)cc1)NC(=O)[C@@H](NC(=O)[C@H](Cc1c[nH]cn1)NC(=O)[C@H](CCC(=O)O)NC(=O)[C@H](C)N)[C@@H](C)O)C(=O)N[C@@H](Cc1c[nH]c2ccccc12)C(=O)N[C@@H](CC(=O)O)C(=O)N[C@H](C(=O)N[C@@H](Cc1ccc(O)cc1)C(=O)N[C@@H](CO)C(=O)N1CCC[C@H]1C(=O)N[C@@H](CC(C)C)C(=O)N[C@@H](C)C(=O)N[C@@H](Cc1ccccc1)C(N)=O)[C@@H](C)O (H-AEHTYSSLWDTYSPLAF-NH2) |
| 5 |  | CSCC[C@H](NC(=O)[C@H](C)NC(=O)[C@H](CC(C)C)NC(=O)[C@@H]1CCCN1C(=O)[C@@H]1CCCN1C(=O)[C@H](CC(C)C)NC(=O)[C@H](CO)NC(=O)[C@H](Cc1ccc(O)cc1)NC(=O)[C@H](CC(C)C)NC(=O)[C@H](CO)NC(=O)[C@H](Cc1c[nH]c2ccccc12)NC(=O)[C@H](CC(C)C)NC(=O)[C@H](CC(=O)O)NC(=O)[C@H](CC(C)C)NC(=O)[C@@H]1CCCN1C(=O)[C@H](CCC(=O)O)NC(=O)[C@H](C)N)C(N)=O (H-AEPLDLWSLYSLPPLAM-NH2) |
|  | 15 | CC[C@H](C)[C@H](NC(=O)[C@H](CCC(=O)O)NC(=O)[C@H](C)N)C(=O)N[C@@H](CC(C)C)C(=O)N[C@@H](CC(N)=O)C(=O)N[C@@H](Cc1ccccc1)C(=O)N1CCC[C@H]1C(=O)N[C@@H](CC(C)C)C(=O)N[C@@H](Cc1c[nH]c2ccccc12)C(=O)N[C@@H](Cc1c[nH]cn1)C(=O)N[C@@H](CCC(=O)O)C(=O)N1CCC[C@H]1C(=O)N[C@@H](CC(C)C)C(=O)N[C@@H](Cc1c[nH]c2ccccc12)C(=O)N[C@@H](CO)C(=O)N[C@H](C(=O)N[C@@H](CCC(=O)O)C(N)=O)[C@@H](C)O (H-AEILNFPLWHEPLWSTE-NH2) |
|  | 6 | CC[C@H](C)[C@H](NC(=O)[C@H](CCC(=O)O)NC(=O)[C@H](C)N)C(=O)N[C@@H](CO)C(=O)N[C@@H](Cc1ccccc1)C(=O)N[C@@H](CO)C(=O)N[C@@H](CCC(=O)O)C(=O)N[C@@H](CC(C)C)C(=O)N[C@@H](CCSC)C(=O)N[C@@H](Cc1c[nH]c2ccccc12)C(=O)N[C@@H](CC(C)C)C(=O)N[C@@H](CCCNC(=N)N)C(=O)N[C@@H](CO)C(=O)N[C@H](C(=O)N1CCC[C@H]1C(=O)N[C@@H](C)C(=O)N[C@@H](Cc1ccccc1)C(N)=O)[C@@H](C)O (H-AEISFSELMWLRSTPAF-NH2) |
| 3 |  | CC(C)C[C@H](NC(=O)CNC(=O)[C@@H]1CCCN1C(=O)[C@H](CC(N)=O)NC(=O)[C@H](Cc1ccccc1)NC(=O)[C@H](Cc1ccccc1)NC(=O)[C@H](Cc1ccccc1)NC(=O)[C@H](CO)NC(=O)[C@H](Cc1c[nH]c2ccccc12)NC(=O)[C@H](CC(N)=O)NC(=O)[C@H](CC(C)C)NC(=O)[C@H](CC(C)C)NC(=O)[C@H](C)NC(=O)[C@@H]1CCCN1C(=O)[C@H](CCC(=O)O)NC(=O)[C@H](C)N)C(=O)N[C@@H](Cc1c[nH]cn1)C(N)=O (H-AEPALLNWSFFFNPGLH-NH2) |
| 7 |  | CC[C@H](C)[C@H](NC(=O)[C@H](CCCNC(=N)N)NC(=O)[C@H](Cc1c[nH]c2ccccc12)NC(=O)[C@H](CC(C)C)NC(=O)[C@H](CO)NC(=O)[C@H](CO)NC(=O)[C@H](CCC(=O)O)NC(=O)[C@H](C)N)C(=O)N[C@@H](Cc1ccccc1)C(=O)N[C@@H](CO)C(=O)N1CCC[C@H]1C(=O)N[C@@H](CO)C(=O)N[C@@H](C)C(=O)N[C@@H](CC(C)C)C(=O)N[C@@H](CCSC)C(=O)N[C@@H](CCSC)C(=O)N[C@@H](CO)C(N)=O (H-AESSLWRIFSPSALMMS-NH2) |
| > 50 |  | CC(C)C[C@H](NC(=O)[C@H](CCCCN)NC(=O)[C@H](CO)NC(=O)[C@H](Cc1ccc(O)cc1)NC(=O)[C@H](CCC(N)=O)NC(=O)[C@@H](NC(=O)[C@H](CO)NC(=O)[C@H](CCC(=O)O)NC(=O)[C@H](C)N)C(C)C)C(=O)N[C@@H](Cc1c[nH]c2ccccc12)C(=O)N[C@@H](CCCCN)C(=O)N1CCC[C@H]1C(=O)N[C@@H](CC(N)=O)C(=O)N[C@H](C(=O)N[C@H](C(=O)N[C@@H](CC(C)C)C(=O)N[C@@H](C)C(N)=O)[C@@H](C)O)[C@@H](C)O (H-AESVQYSKLWKPNTTLA-NH2) |
